# Experimental data: the supplement of paper PMC13380429
# Columns and labels:
# Details in all cases: 72 h
# [1] = system: HepG2; test: drug sensitivity score (DSS) for viability; higher = more toxic; extreme values may be limits of the assay
# [2] = system: Caco-2; test: as above
# [3] = system: U2OS; test: as above
# [4] = system: Calu-3; test: as above
# [5] = system: Vero E6; test: as above
# [6] = system: HepG2; test: cell viability relative to DMSO; higher = less toxic
# [7] = system: Caco-2; test: as above
# [8] = system: U2OS; test: as above
# [9] = system: Calu-3; test: as above
# [10] = system: Vero E6; test: as above
# [11] = system: HepG2; test: relative viability EC50 (midpoint between 100% and the lowest measured viability); higher = less toxic
# [12] = system: Caco-2; test: as above
# [13] = system: U2OS; test: as above
# [14] = system: Calu-3; test: as above
# [15] = system: Vero E6; test: as above
SMILES,drug sensitivity score [1],drug sensitivity score [2],drug sensitivity score [3],drug sensitivity score [4],drug sensitivity score [5],cell viability ([6]; 1 nM),cell viability ([6]; 10 nM),cell viability ([6]; 100 nM),cell viability ([6]; 1000 nM),cell viability ([6]; 10000 nM),cell viability ([7]; 1 nM),cell viability ([7]; 10 nM),cell viability ([7]; 100 nM),cell viability ([7]; 1000 nM),cell viability ([7]; 10000 nM),cell viability ([8]; 1 nM),cell viability ([8]; 10 nM),cell viability ([8]; 100 nM),cell viability ([8]; 1000 nM),cell viability ([8]; 10000 nM),cell viability ([9]; 1 nM),cell viability ([9]; 10 nM),cell viability ([9]; 100 nM),cell viability ([9]; 1000 nM),cell viability ([9]; 10000 nM),cell viability ([10]; 1 nM),cell viability ([10]; 10 nM),cell viability ([10]; 100 nM),cell viability ([10]; 1000 nM),cell viability ([10]; 10000 nM),relative viability EC50 [11],relative viability EC50 [12],relative viability EC50 [13],relative viability EC50 [14],relative viability EC50 [15]
CN1CCc2cc(Cl)c(O)cc2[C@@H](c2ccccc2)C1,0,0,0,0,0,98.2%,96.3%,97.2%,97.4%,89.9%,96.3%,93.2%,96.3%,100%,99.1%,97.5%,100%,97.8%,102%,101%,93.3%,103%,145%,103%,97.9%,95.6%,95%,93.5%,85.1%,102%,> 10 µM,> 10 µM,> 10 µM,> 10 µM,> 10 µM
COc1ccc(S(=O)(=O)N2CCC[C@H]2C(=O)Nc2cc(C)cc(C)c2)cc1,0,0,0,–,0,101%,99%,113%,104%,104%,91%,93.1%,98.1%,102%,90%,103%,100%,98.1%,102%,99.2%,–,–,–,–,–,102%,102%,107%,98.4%,99.7%,> 10 µM,> 10 µM,> 10 µM,–,> 10 µM
COc1cccc(OC)c1-c1ccc(C[C@H](NC(=O)c2c(Cl)cccc2Cl)C(=O)O)cc1,0,0,0,0,0,91.7%,104%,91%,99.5%,99.3%,85.9%,90.1%,97.6%,94.4%,108%,103%,96.5%,98.5%,97.8%,93.4%,104%,90.9%,105%,96.9%,108%,92.2%,96.2%,91.8%,99.9%,107%,> 10 µM,> 10 µM,> 10 µM,> 10 µM,> 10 µM
CSc1nc(NC2CCCC2)c([N+](=O)[O-])c(NC2CCCC2)n1,–,0,0,0,0,–,–,–,–,–,99%,97%,102%,93.7%,95.7%,102%,103%,98.9%,106%,97.2%,94.6%,94.2%,106%,96.9%,90.1%,110%,98.3%,107%,96.4%,97%,–,> 10 µM,> 10 µM,> 10 µM,> 10 µM
Cc1cc(C(=O)Nc2cccc(C(=O)Nc3cccc(C(F)(F)F)c3)c2)on1,1.5,0,0,0,0,103%,92.3%,109%,92.9%,79.1%,96.2%,96.6%,89.5%,101%,105%,99%,99.3%,94.8%,104%,104%,93.7%,99.8%,99.7%,102%,99.8%,100%,99.4%,96.7%,97.3%,103%,> 10 µM,> 10 µM,> 10 µM,> 10 µM,> 10 µM
Cc1nc2c(OCc3ccccc3)cccn2c1CC#N,0,0,0,–,0,106%,107%,95.9%,106%,97.5%,97.9%,91.1%,107%,100%,93.6%,98%,102%,100%,95.3%,98.2%,–,–,–,–,–,92.4%,93.3%,95.8%,95.1%,103%,> 10 µM,> 10 µM,> 10 µM,–,> 10 µM
Cc1nnsc1C(=O)Nc1ccc(-n2nc(C(F)(F)F)cc2C(F)(F)F)cc1,0,0.2,0,0,0,94.5%,98.8%,105%,107%,90.9%,93.4%,83.8%,105%,87.2%,85.1%,99.9%,97.9%,100%,100%,99.1%,101%,98.4%,95.2%,104%,99.9%,95.9%,96.2%,94.7%,97.8%,95.6%,> 10 µM,> 10 µM,> 10 µM,> 10 µM,> 10 µM
"OCc1ccc(CO)o1 [2,5-furandimethanol]",0,0,0,–,0,98.6%,97.3%,108%,106%,100%,89.2%,100%,84.4%,95.1%,103%,95.4%,104%,96.6%,98.5%,99%,–,–,–,–,–,97.1%,94.3%,88.2%,94.4%,107%,> 10 µM,> 10 µM,> 10 µM,–,> 10 µM
CO/N=C(\C(=O)N[C@@H]1C(=O)N2C(C(=O)O)=C(COC(N)=O)CS[C@H]12)c1ccco1 [CEFUROXIME SODIUM],0,0,0,–,0,97.7%,109%,95.4%,97.8%,103%,106%,90.6%,98.6%,107%,99.4%,97.3%,95%,96.8%,98.7%,103%,–,–,–,–,–,101%,95.6%,97.6%,95.1%,110%,> 10 µM,> 10 µM,> 10 µM,–,> 10 µM
O=C(NC(NC(=S)Nc1ccc(F)c([N+](=O)[O-])c1)C(Cl)(Cl)Cl)C(c1ccccc1)c1ccccc1 (centres undefined) [CGK-733],5.6,6.6,4.6,2.2,4.7,95.8%,94.2%,104%,96.7%,7.9%,99.2%,106%,93.9%,90.3%,10.7%,94.4%,103%,96.4%,95.9%,27.4%,97.8%,103%,96.6%,104%,52.8%,98.8%,100%,101%,97.8%,20%,2.91 µM,2.26 µM,2.72 µM,–,2.96 µM
C#C[C@]1(O)CC[C@H]2[C@@H]3CCc4cc(O)ccc4[C@H]3CC[C@@]21C [ETHINYL ESTRADIOL],3,0.2,0,0,0,97.3%,98%,99.8%,90.8%,65.7%,97.2%,102%,99.5%,99.4%,85.7%,97.7%,105%,98.8%,102%,92.9%,100%,100%,88.4%,94.3%,96.4%,97.7%,98.1%,94.2%,92.9%,102%,–,> 10 µM,> 10 µM,> 10 µM,> 10 µM
O/N=C/c1ccc(-c2ccc(O)c(F)c2)c(Cl)c1O [FERb-033],1.2,0.8,0,0.3,0,95.7%,104%,100%,99.8%,71.1%,98.1%,95.2%,93.4%,91.9%,81.4%,102%,97.1%,99.5%,96.9%,93.9%,104%,101%,100%,98.9%,84.8%,97.7%,106%,98.8%,103%,95.7%,–,> 10 µM,> 10 µM,> 10 µM,> 10 µM
O=S(=O)(c1cccc2c(Cl)cccc12)N1CCCNCC1 [ML9],1.5,0.1,0,0,0,96.3%,96.5%,90.8%,93.3%,74.7%,94.5%,91.6%,97.3%,88%,87.7%,95.5%,93.3%,96.9%,102%,103%,110%,104%,110%,99.9%,98.9%,89%,96.9%,87.9%,96.8%,94.1%,–,> 10 µM,> 10 µM,> 10 µM,> 10 µM
O=C(O)c1ccc(Nc2ncc3c(n2)-c2ccc(Cl)cc2C(c2c(F)cccc2F)=NC3)cc1 [MLN8054],5.1,3.3,2,0.6,1.1,109%,108%,96.7%,73.2%,62.3%,94.4%,100%,87%,82%,82.5%,103%,105%,100%,90%,76.7%,96.2%,96.2%,112%,91.3%,86.8%,103%,97.9%,104%,91.7%,82.7%,–,> 10 µM,> 10 µM,> 10 µM,> 10 µM
CCOC(=O)c1c(O)nc2cccc3c2c1-c1ccccc1C3=O [NQDI-1],5,0,0,0,0,106%,102%,98.4%,76%,57.2%,89.6%,103%,89.7%,92.9%,98.3%,95.6%,101%,102%,97.7%,101%,91.5%,96.8%,95.7%,95.2%,104%,104%,103%,102%,95.9%,94%,–,> 10 µM,> 10 µM,> 10 µM,> 10 µM
